From publication PMC9682480, ““Vermellogens” and the Development of CB[8]-Based Supramolecular Switches Using pH-Responsive and Non-Toxic Viologen Analogues” (Journal of the American Chemical Society, 2022)

Tests used:
HFF-1 cells = assay: Cell viability assay (WST-1) in human fibroblastic cell line; assay type: cell-based
Experimental: To conclude with this part of our work on the molecular responsiveness of the “vermellogens,” we decided to substantiate whether the bis-pyridinium core in the compounds would have or not a viologen-like reversible redox behavior. Thus, cyclic voltamograms were recorded for RaH·2Cl (2 mM) in buffered aqueous solutions at pH = 2 (0.05 M H3PO4/NaH2PO4), 7 (0.05 M NaH2PO4/Na2HPO4), and 12 (0.05 M Na2HPO4/Na3PO4). Those shown both the acidic (RaH^2+) and basic (Ra^+) forms of the “red thread” owning non-reversible redox peaks (Figure 1b).
Fibroblast cells (HFF-1; ATTC® SCRC-1041TM) were maintained in Dulbecco’s modified eagle’s medium (DMEM) supplemented with 10% FBS and 1% P/S and kept at 37 °C in a humidified atmosphere containing 5% CO2 until their use. HFF-1 cells were seeded in 96 well-plates at an initial density of 10^4 cells/well and allowed to attach for 24 h at 37 °C. The following day, culture medium was removed, replenished by fresh medium (90 µl) and cells were exposed to different concentration of R aH·2Cl and MV (10 µl; final concentrations 0.01, 0.05, 0.1, 0.5 and 1 mM). Control conditions included cells cultured in culture medium, but in absence of compound. Cells were further incubated for 24 h at 37°C and cell viability was monitored using the tetrazolium salt (WST-1) method.6 Absorbance at 450 nm was measured using a Synergy HTX Plate Reader (Biotek, Winooski, VT, USA) and the percent of cell viability (%) was calculated as follows:
Viability (%) = […]
Where Asample and Anegative control depict those absorbance values measured at 450 nm in presence and in absence of compound, respectively. All conditions were tested by triplicate in two independent experiments. Data were expressed as mean ± standard deviation (SD). Statistical analysis was performed by two-ways and one-way ANOVA with Tukey’s LSD post hoc test using IBM SPSS Statistics version 23. A p ≤ 0.05 was considered statistically significant.
Figure S 138: Compounds tested in WST-1 assay for cell viability.
6 Carballo-Pedrares, N.; Kattar, A.; Concheiro, A.; Alvarez-Lorenzo, C.; Rey-Rico, Niosomes-based gene delivery systems for effective transfection of human mesenchymal stem cells. A. Matter. Sci. Eng. 2021, 18, 112307.

[1] = Fluoride interaction by UV–vis titration in acetonitrile (TBAF); assay type: binding; details: 1 μM, 2:1 process
Excerpt: (§1) Finally, diffraction-grade single crystals for RaH·2Cl could be obtained, with the solid-state structure showing hydrogen bonding between the hydrazone moiety with a chloride counterion and a crystallization water (Figure 1a).[34] Moved by this observation, and other reported evidence regarding the anion binding abilities of this type of hydrazone moieties,[30],[35] we decided to study the ability of the “red thread” RaH^2+ to recognize halide anions in acetonitrile by UV–vis titrations and ^1H-NMR. […] Conversely, the addition of increasing amounts of TBACl/Br to 33–20 μM solutions of RaH·2PF6, led to the absorption bands associated with the free form of RaH^2+ at λmax = 370 nm, decreasing in favor of new bands with a slight shift to λmax = 378 and 370 nm, tentatively assigned to RaH^2+···Cl/Br complexes and with the data fitting appropriately to 1:1 association processes (Ka = (7.03 ± 0.14)·10^4 M^–1 for Cl^–, (1.41 ± 0.07)·10^4 M^–1 for Br^–). In both cases, the results agreed with those expected for the recognition through hydrogen bonding between the hydrazone group and the anions, resulting in a bathochromic shift of the absorption band.[30],[35] […]
(§2) NMR titrations could not be performed due to the precipitation of R aH2+ upon 2 eqv. of the corresponding salt. Spectra were recorded at 0, 0.5, 1, 2 and 4 eq. of the corresponding salt to follow the chemical shift of the […]

[2] = Halide recognition by UV–vis titration in acetonitrile (TBABr); assay type: binding
Excerpt: (§3) Finally, diffraction-grade single crystals for RaH·2Cl could be obtained, with the solid-state structure showing hydrogen bonding between the hydrazone moiety with a chloride counterion and a crystallization water (Figure 1a).[34] Moved by this observation, and other reported evidence regarding the anion binding abilities of this type of hydrazone moieties,[30],[35] we decided to study the ability of the “red thread” RaH^2+ to recognize halide anions in acetonitrile by UV–vis titrations and ^1H-NMR. […] Conversely, the addition of increasing amounts of TBACl/Br to 33–20 μM solutions of RaH·2PF6, led to the absorption bands associated with the free form of RaH^2+ at λmax = 370 nm, decreasing in favor of new bands with a slight shift to λmax = 378 and 370 nm, tentatively assigned to RaH^2+···Cl/Br complexes and with the data fitting appropriately to 1:1 association processes (Ka = (7.03 ± 0.14)·10^4 M^–1 for Cl^–, (1.41 ± 0.07)·10^4 M^–1 for Br^–). […]
as §2
(§4) Concentration (μM) Absorbance Residual […]

[3] = Halide recognition in acetonitrile (iodide); assay type: binding; details: UV–vis titrations and 1H-NMR
Excerpt: as §1, §2

[4] = Halide recognition by UV–vis titration in acetonitrile (TBACl); assay type: binding
Excerpt: as §3, §2, §4

[5] = pKa determination by UV–vis acid–base titrations in water; assay type: physicochemical; details: for pKa value (linear fitting of pH against log absorbance ratio): 20 μM chloride salt in NaH2PO4/Na2HPO4, KHCO3/K2CO3 and Na2HPO4/Na2PO4 buffers, supplement; for pKa: aqueous phosphate and carbonate buffers, RH^2+/R^+ or MH^+/M, UV–vis titrations in water, chloride salts
Excerpt: Next, in our study of the stimuli-responsiveness of the “vermellogens”, we proceeded to verify the new analogues as pH-based molecular switches, by conducting UV–vis acid–base titrations in water for the compounds Ra–eH·2Cl. All the new “vermellogens” show similar π–π* main absorption bands centered at λ^1max = 366–377 nm at neutral or slightly acidic pH. An increase in the basicity of the solution produces the decrease of the aforementioned bands and the concomitant rise of new absorptions associated with the deprotonated compounds and centered at λ^2max = 460–475 nm. The pKa values obtained by the aforementioned UV–vis titrations for Ra–eH·2Cl are quite similar, showing no dependence on the substituent on the pyridinium N^+ atoms within their structures (Table 1 and Figures S115–S125). Furthermore, to evaluate the effect of the two different pyridinium heterocycles on the observed anomalous pKa’s, two analogues were prepared (Ma–bH·Cl), in which one of these moieties was substituted by a neutral phenyl ring.
4.2. pK a determination for Rb by UV-Vis
(§5) Figure S 116: UV-Vis spectra for the titration of R b·2Cl at 20 μM in NaH 2PO4/Na2HPO4, KHCO3/K2CO3 and Na2HPO4/Na2PO4 buffers. On the top right: Absorption of R b+ at λ = 474 nm plotted against pH. pH V (mL) of V (mL) of V (mL) of V (mL) of V (mL) of ABS log[A474-(measured) solution A solution B solution C solution D solution E (474 ARb2+)/(ARb1+- […]
(§6) Table S 4: Experimental data obtained for the UV-Vis titration of R b·2Cl at 20 μM in NaH2PO4/Na2HPO4, KHCO3/K2CO3 and Na2HPO4/Na2PO4 buffer. Solution A: 20 μM of R b·2Cl and 0.05 M of NaH2PO4. Solution B: 20 μM of R b·2Cl and 0.05 M of NaHPO4. Solution C: 20 μM of R b·2Cl and 0.05 M of Na2PO4. Solution D: 20 μM of R b·2Cl and 0.05 M of KHCO3. Solution E: 20 μM of R b·2Cl and 0.05 M of […]
4.4. pK a determination for Rc by UV-Vis
as §5, with “119:” for “116:”, “c·2Cl” for “b·2Cl”, “c+” for “b+”, “466” for “474”, “log[A466-(measured)” for “log[A474-(measured)”, “(466 ARc2+)/(ARc+-” for “(474 ARb2+)/(ARb1+-”
Table S 5: Experimental data obtained for the UV-Vis titration of R c·2Cl at 20 μM in NaH2PO4/Na2HPO4, KHCO3/K2CO3 and Na2HPO4/Na2PO4 buffer. Solution A: 20 μM of Rc·2Cl and 0.05 M of NaH2PO4. Solution B: 20 μM of R c·2Cl and 0.05 M of NaHPO4. Solution C: 20 μM of R c·2Cl and 0.05 M of Na2PO4. Solution D: 20 μM of R c·2Cl and 0.05 M of KHCO3. Solution E: 20 μM of R c·2Cl and 0.05 M of […]
4.6. pK a determination for Rd by UV-Vis
as §5, with “122:” for “116:”, “d·2Cl” for “b·2Cl”, “d+” for “b+”, “475” for “474”, “log[A475-(measured)” for “log[A474-(measured)”, “(475 ARd2+)/(ARd1+-” for “(474 ARb2+)/(ARb1+-”
as §6, with “6:” for “4:”, “d·2Cl” for “b·2Cl”
4.8. pK a determination for Re by UV-Vis
as §5, with “125:” for “116:”, “e·2Cl” for “b·2Cl”, “e+” for “b+”, “460” for “474”, “log[A460-(measured)” for “log[A474-(measured)”, “(460 ARe2+)/(ARe1+-” for “(474 ARb2+)/(ARb1+-”
Table S 7: Experimental data obtained for the UV-Vis titration of R e·2Cl at 20 μM in NaH2PO4/Na2HPO4, KHCO3/K2CO3 and Na2HPO4/Na2PO4 buffer. Solution A: 20 μM of R e·2Cl and 0.05 M of […]

Compound: C[n+]1ccc(-c2cc[n+](C)cc2)cc1 [MV^2+, paraquat, reference compound]
- decrease of cell survival percentages relative to RaH^2+ (HFF-1 cells; HFF-1, from 0.5 mM): ~3 fold
- cell survival (HFF-1 cells; HFF-1, from 0.5 mM concentration, 24 h, WST-1): severe decrease in cell survival

Compound: C[n+]1ccc(/C=N/Nc2cc[n+](C)cc2)cc1 [RaH·2PF6]
- Ka1 (first F^– equivalent, interaction with hydrazone group) [1]: (4.49 ± 0.77)·10^7 M^–1
- Ka2 (deprotonation of the NH assisted by a second fluoride) [1]: (5.43 ± 0.59)·10^7 M^–1
- Ka (1:1 association with Br^–) [2]: (1.41 ± 0.07)·10^4 M^–1
- interaction with I^– [3]: no interaction
- Ka (1:1 association with Cl^–) [4]: (7.03 ± 0.14)·10^4 M^–1

Compound: C(=N\Nc1cc[n+](Cc2ccccc2)cc1)/c1cc[n+](Cc2ccccc2)cc1 [RbH·2X]
- pKa value (linear fitting of pH against log absorbance ratio) [5]: 8.6
- pKa [5]: 8.6

Compound: C[n+]1ccc(N/N=C/c2cc[n+](Cc3ccccc3)cc2)cc1 [RcH·2X]
- pKa value (linear fitting of pH against log absorbance ratio) [5]: 8.6
- pKa [5]: 8.7

Compound: C[n+]1ccc(/C=N/Nc2cc[n+](Cc3ccccc3)cc2)cc1 [RdH·2X]
- pKa [5]: 8.6

Compound: C/C(=N\Nc1cc[n+](C)cc1)c1cc[n+](C)cc1 [ReH·2X]
- pKa [5]: 9.6
